Laboratory results reported in ChEMBL document CHEMBL1139550, “1-Acyl-1H-[1,2,4]triazole-3,5-diamine analogues as novel and potent anticancer cyclin-dependent kinase inhibitors: synthesis and evaluation of biological activities” (J Med Chem, 2005).
Several values for one entry are separate records, joined by “and”; a condition that tells them apart may be missing. Equal values may be shown once. One block for each compound: values may come before it.

Assays:
[1] = target: Cyclin-dependent kinase 1/cyclin B (Homo sapiens, UniProt P06493); test: Inhibition of Cyclin B-cyclin-dependent kinase 1; assay type: protein-complex assay
[2] = tested on: MDA-MB-231; test: In vitro inhibitory concentration against cell proliferation in human MDA-MB-231 (breast carcinoma) tumor cells; assay type: functional, cell-based
[3] = tested on: HCT-116; test: In vitro inhibitory concentration against cell proliferation in human HCT116 (colon carcinoma) tumor cells; assay type: functional, cell-based
[4] = tested on: HeLa; test: In vitro inhibitory concentration against cell proliferation in human HeLa (cervical adenocarcinoma) tumor cells; assay type: functional, cell-based
[5] = tested on: PC-3; test: In vitro inhibitory concentration against cell proliferation in human PC-3 (prostate adenocarcinoma) tumor cells; assay type: functional, cell-based
[6] = tested on: A-375; test: In vitro inhibitory concentration against cell proliferation in human A375 (malignant melanoma),tumor cells; assay type: functional, cell-based
[7] = tested on: SK-OV-3; test: In vitro inhibitory concentration against cell proliferation in human SK-OV-3 (ovarian adenocarcinoma) tumor cells; assay type: functional, cell-based
[8] = tested on: MDA-MB-231; test: In vitro inhibitory concentration against cell proliferation in various human MDA-MB-231 (breast carcinoma) tumor cells; assay type: functional, cell-based
[9] = Inhibition of Platelet-derived growth factor receptor beta
[10] = target: Casein kinase II (Homo sapiens, UniProt P19784+P67870+P68400); test: Inhibition of Casein kinase-2; assay type: protein-complex assay
Sequence of Casein kinase II (P67870 whole entry): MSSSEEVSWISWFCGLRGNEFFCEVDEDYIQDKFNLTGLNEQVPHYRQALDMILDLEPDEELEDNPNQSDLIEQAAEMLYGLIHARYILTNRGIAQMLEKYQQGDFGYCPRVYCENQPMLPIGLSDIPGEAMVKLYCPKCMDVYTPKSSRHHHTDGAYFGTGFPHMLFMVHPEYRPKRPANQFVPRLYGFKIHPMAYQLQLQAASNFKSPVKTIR
Sequence of Casein kinase II (P68400 whole entry): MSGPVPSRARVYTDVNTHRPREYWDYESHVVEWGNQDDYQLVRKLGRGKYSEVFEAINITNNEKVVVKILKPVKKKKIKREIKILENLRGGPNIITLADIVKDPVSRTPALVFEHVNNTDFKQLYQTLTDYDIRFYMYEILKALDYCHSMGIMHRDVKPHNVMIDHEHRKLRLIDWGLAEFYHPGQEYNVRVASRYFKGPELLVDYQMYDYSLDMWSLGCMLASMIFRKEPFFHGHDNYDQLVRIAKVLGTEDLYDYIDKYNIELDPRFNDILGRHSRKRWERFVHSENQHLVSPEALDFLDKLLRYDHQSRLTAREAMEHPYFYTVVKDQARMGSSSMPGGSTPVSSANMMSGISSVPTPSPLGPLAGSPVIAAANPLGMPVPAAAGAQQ
Sequence of Casein kinase II (P19784 whole entry): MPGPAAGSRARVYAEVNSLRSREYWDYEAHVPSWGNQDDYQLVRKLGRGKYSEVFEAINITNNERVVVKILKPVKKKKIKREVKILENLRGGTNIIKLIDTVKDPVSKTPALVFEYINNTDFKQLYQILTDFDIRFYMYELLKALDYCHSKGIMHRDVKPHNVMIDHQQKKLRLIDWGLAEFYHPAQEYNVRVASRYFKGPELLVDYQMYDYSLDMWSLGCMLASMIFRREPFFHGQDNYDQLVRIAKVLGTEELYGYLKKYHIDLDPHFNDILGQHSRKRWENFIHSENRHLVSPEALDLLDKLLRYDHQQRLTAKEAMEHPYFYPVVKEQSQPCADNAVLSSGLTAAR

[11] = tested on: A-375; test: In vitro inhibitory concentration against cell proliferation in human A375 (malignant melanoma) tumor cells; assay type: functional, cell-based
[12] = target: Protein kinase C beta type (Homo sapiens, UniProt P05771); test: Inhibition of Protein kinase C- beta 2
Sequence of Protein kinase C beta type (P05771 whole entry): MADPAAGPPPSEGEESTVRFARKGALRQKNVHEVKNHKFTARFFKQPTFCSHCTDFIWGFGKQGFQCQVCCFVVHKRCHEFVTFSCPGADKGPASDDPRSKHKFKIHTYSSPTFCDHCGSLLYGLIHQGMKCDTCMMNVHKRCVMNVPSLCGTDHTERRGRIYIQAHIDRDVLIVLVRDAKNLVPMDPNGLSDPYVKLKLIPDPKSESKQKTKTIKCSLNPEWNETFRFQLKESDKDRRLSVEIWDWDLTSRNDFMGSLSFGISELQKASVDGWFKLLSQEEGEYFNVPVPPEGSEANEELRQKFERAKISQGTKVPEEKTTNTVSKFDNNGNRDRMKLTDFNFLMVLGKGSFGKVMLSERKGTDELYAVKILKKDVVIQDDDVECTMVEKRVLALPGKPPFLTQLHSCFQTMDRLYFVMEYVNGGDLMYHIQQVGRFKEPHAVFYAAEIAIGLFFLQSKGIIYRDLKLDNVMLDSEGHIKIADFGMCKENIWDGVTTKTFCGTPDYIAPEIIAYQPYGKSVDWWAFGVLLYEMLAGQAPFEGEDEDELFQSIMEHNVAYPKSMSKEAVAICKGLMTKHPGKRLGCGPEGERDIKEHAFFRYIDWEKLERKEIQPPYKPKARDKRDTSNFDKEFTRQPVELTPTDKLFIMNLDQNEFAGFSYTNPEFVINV

[13] = target: Cyclin-dependent kinase 2/cyclin A (Homo sapiens, UniProt P24941); test: Inhibition of Cyclin-dependent kinase 2-cyclin A; assay type: protein-complex assay
[14] = Inhibition of Protein kinase-C alpha/gamma
[15] = target: Cyclin-dependent kinase 4/cyclin D1 (Homo sapiens, UniProt P11802); test: Inhibition of Cyclin-dependent kinase 4-cyclin D1; assay type: protein-complex assay
Sequence of Cyclin-dependent kinase 4/cyclin D1 (P11802 whole entry): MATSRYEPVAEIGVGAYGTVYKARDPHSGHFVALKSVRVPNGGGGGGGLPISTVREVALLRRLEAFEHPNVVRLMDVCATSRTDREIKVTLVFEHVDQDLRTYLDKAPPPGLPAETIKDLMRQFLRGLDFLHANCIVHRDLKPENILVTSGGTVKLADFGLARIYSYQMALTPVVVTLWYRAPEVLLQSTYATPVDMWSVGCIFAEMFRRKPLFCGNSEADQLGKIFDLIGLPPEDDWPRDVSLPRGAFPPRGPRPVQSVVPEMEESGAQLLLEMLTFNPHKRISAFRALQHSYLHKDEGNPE
Sequence of Cyclin-dependent kinase 4/cyclin D1 (P24385 whole entry, further chain): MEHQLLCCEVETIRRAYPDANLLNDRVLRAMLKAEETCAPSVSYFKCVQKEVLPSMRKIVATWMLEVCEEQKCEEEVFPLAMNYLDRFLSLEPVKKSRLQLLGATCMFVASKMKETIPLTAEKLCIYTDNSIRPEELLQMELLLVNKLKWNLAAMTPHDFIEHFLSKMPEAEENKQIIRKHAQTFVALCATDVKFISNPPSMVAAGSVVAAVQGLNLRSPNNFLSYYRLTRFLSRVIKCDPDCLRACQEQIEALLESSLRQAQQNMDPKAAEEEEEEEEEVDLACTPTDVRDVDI

[16] = target: Fibroblast growth factor receptor 2 (Homo sapiens, UniProt P21802); test: Inhibition of Fibroblast growth factor receptor 2
Sequence of Fibroblast growth factor receptor 2 (P21802 whole entry): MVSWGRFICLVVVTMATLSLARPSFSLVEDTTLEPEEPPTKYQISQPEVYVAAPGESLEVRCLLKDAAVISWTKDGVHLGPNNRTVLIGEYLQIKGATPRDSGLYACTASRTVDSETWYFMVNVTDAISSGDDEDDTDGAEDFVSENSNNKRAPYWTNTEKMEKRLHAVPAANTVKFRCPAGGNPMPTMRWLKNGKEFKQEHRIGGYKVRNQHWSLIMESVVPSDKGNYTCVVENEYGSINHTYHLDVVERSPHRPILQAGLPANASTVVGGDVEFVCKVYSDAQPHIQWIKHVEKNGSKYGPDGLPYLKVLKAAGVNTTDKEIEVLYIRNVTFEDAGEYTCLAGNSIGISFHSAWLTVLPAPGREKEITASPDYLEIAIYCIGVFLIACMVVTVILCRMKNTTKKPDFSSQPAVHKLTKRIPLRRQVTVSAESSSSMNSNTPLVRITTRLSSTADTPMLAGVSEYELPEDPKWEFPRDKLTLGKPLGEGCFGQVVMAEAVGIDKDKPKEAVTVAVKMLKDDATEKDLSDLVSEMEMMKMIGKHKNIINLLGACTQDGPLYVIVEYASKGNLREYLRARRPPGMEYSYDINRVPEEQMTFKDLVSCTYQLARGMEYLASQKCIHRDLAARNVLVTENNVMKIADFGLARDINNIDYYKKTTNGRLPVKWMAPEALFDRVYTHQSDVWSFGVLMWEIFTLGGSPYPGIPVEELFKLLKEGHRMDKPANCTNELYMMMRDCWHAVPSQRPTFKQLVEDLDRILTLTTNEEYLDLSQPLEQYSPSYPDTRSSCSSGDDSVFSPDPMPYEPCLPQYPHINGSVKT

[17] = target: Glycogen synthase kinase-3 (Homo sapiens, UniProt P49840+P49841); test: Inhibition of Glycogen synthase kinase-3; assay type: protein assay
[18] = Bioavailability in mouse (nude) (dose 30 mg/kg p.o.); assay type: ADME, organism-based; conditions: in vivo, po
[19] = Maximum plasma concentration after oral administration of 30 mg/kg in nude mice; assay type: ADME, organism-based; parameters: dose 30 mg/kg, route oral; conditions: mouse
[20] = target: CaM kinase II (Homo sapiens, UniProt Q13557+Q13555+Q13554+Q9UQM7); test: Inhibition of [Ca(2+)]/calmodulin dependent kinase; assay type: protein assay
[21] = Area under concentration time curve after 3 mg/kg […] in nude mice; assay type: ADME, organism-based; parameters: dose 3 mg/kg; conditions: mouse, in vivo
[22] = Half life after intravenous administration of 3 mg/kg; assay type: ADME, organism-based; parameters: dose 3 mg/kg, route intravenous; conditions: rat, in vivo
[23] = target: Vascular endothelial growth factor receptor 2 (Homo sapiens, UniProt P35968); test: Inhibition of Vascular endothelial growth factor receptor 2
Sequence of Vascular endothelial growth factor receptor 2 (P35968 whole entry): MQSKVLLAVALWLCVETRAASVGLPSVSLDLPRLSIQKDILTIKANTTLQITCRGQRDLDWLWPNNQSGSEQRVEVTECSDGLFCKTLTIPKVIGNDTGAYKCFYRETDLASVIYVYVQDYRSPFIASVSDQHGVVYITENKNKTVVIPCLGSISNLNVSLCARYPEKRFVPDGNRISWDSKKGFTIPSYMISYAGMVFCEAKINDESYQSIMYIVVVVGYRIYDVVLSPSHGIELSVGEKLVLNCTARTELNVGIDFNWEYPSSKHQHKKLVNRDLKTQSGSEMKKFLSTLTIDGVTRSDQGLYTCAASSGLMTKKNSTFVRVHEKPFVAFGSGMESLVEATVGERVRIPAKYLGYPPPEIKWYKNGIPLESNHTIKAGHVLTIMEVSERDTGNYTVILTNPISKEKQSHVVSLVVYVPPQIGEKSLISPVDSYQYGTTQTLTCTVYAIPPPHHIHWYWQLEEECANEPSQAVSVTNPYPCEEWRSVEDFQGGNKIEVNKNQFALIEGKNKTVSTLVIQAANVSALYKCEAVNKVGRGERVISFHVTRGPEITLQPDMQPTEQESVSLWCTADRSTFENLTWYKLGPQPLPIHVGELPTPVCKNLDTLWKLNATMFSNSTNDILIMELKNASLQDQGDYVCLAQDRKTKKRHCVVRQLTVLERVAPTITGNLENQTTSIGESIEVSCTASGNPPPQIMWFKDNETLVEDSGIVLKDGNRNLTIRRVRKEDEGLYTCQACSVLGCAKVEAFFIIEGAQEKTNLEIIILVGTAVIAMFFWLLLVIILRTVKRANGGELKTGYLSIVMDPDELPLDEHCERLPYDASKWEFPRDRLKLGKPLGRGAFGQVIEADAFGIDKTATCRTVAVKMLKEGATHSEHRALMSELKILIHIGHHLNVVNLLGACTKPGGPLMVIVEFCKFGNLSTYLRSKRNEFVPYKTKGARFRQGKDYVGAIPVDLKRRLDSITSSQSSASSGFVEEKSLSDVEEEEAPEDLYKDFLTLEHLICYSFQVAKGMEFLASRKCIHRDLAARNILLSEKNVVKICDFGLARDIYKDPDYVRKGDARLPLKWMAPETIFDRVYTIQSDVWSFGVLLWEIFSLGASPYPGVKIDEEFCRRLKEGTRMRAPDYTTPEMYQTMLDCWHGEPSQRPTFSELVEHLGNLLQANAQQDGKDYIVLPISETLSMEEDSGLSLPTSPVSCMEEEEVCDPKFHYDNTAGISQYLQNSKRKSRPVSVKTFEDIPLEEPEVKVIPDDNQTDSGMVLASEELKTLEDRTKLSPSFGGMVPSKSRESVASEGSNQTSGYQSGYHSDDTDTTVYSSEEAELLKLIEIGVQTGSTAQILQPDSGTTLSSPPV

[24] = Half life after oral administration of 30 mg/kg; assay type: ADME, organism-based; parameters: dose 30 mg/kg, route oral; conditions: rat, in vivo
[25] = Maximum plasma concentration after intravenous administration of 3 mg/kg in nude mice; assay type: ADME, organism-based; parameters: dose 3 mg/kg, route intravenous; conditions: mouse
[26] = target: Mitogen-activated protein kinase; ERK1/ERK2 (Homo sapiens, UniProt P27361+P28482); test: Inhibition of Mitogen-activated protein kinase 1; assay type: protein assay
[27] = target: Casein kinase I; test: Inhibition of human casein kinase-1; assay type: protein assay
[28] = Inhibition of Protein kinase A
[29] = Area under concentration time curve after 30 mg/kg of oral dose in nude mice; assay type: ADME, organism-based; parameters: dose 30 mg/kg, route oral; conditions: mouse, in vivo
[30] = tested on: HeLa; test: In vitro inhibitory concentration against cell proliferation in s human HeLa (cervical adenocarcinoma),tumor cells; assay type: functional, cell-based
[31] = Area under concentration time curve after 1 mg/kg of intravenous dose in dog; assay type: ADME, organism-based, Canis lupus familiaris; parameters: dose 1 mg/kg, route intravenous; conditions: in vivo
[32] = Maximum plasma concentration after intravenous administration of 1 mg/kg in dog; assay type: ADME, organism-based, Canis lupus familiaris; parameters: dose 1 mg/kg, route intravenous
[33] = Maximum plasma concentration after intravenous administration of 3 mg/kg in rat; assay type: ADME, organism-based; parameters: dose 3 mg/kg, route intravenous
[34] = Maximum plasma concentration after oral administration of 30 mg/kg in rat; assay type: ADME, organism-based; parameters: dose 30 mg/kg, route oral
[35] = Half life after oral administration of 10 mg/kg; assay type: ADME, organism-based, Canis lupus familiaris; parameters: dose 10 mg/kg, route oral; conditions: dog, in vivo
[36] = Area under concentration time curve after 30 mg/kg of oral dose in rat; assay type: ADME, organism-based; parameters: dose 30 mg/kg, route oral; conditions: in vivo
[37] = Area under concentration time curve after 3 mg/kg […] in rat; assay type: ADME, organism-based; parameters: dose 3 mg/kg; conditions: in vivo
[38] = Maximum plasma concentration after oral administration of 10 mg/kg in dog; assay type: ADME, organism-based, Canis lupus familiaris; parameters: dose 10 mg/kg, route oral
[39] = Bioavailability in dog after 10 mg/kg oral dose; assay type: ADME, organism-based, Canis lupus familiaris; conditions: in vivo, read-out: Bioavailabiility
[40] = Area under concentration time curve after 10 mg/kg of oral dose in dog; assay type: ADME, organism-based, Canis lupus familiaris; parameters: dose 10 mg/kg, route oral; conditions: in vivo
[41] = Bioavailability in rat after 30 mg/kg oral dose; assay type: ADME, organism-based; conditions: in vivo, read-out: Bioavailabiility
[42] = Half life after intravenous administration of 1 mg/kg; assay type: ADME, organism-based, Canis lupus familiaris; parameters: dose 1 mg/kg, route intravenous; conditions: dog, in vivo
[43] = tested on: Mus musculus; test: Mean day of survival after intraperitoneal administration of 100 mg/kg in mice; assay type: functional
[44] = tested on: Mus musculus; test: Mean day of survival after intraperitoneal administration of 75 mg/kg in mice; assay type: functional

Compound: Cc1cc(C)c(C(=O)n2nc(Nc3ccc(S(N)(=O)=O)cc3)nc2N)s1
- IC50 [2]: 170 nM
- IC50 [3]: 270 nM
- IC50 [4]: 72 nM
- IC50 [5]: 37 nM

Compound: N[n+]1nc(Nc2ccc(S(N)(=O)=O)cc2)nn1S(=O)(=O)c1c(F)cccc1F
- IC50 [1]: 660 nM

Compound: Cc1ccc(F)c(C(=O)n2nc(N)nc2Nc2ccc(S(N)(=O)=O)cc2)c1F
- IC50 [1]: 2100 nM
- IC50 [3]: 4100 nM
- IC50 [4]: 28500 nM
- IC50 [6]: > 10000 nM

Compound: Nc1nc(Nc2ccc(S(N)(=O)=O)cc2)nn1C(=O)c1cccs1
- IC50 [7]: 730 nM
- IC50 [3]: 1900 nM
- IC50 [4]: 550 nM
- IC50 [5]: 160 nM
- IC50 [8]: 760 nM
- IC50 [6]: 2600 nM

Compound: Nc1nc(Nc2ccc(S(N)(=O)=O)cc2)nn1C(=S)Nc1c(F)cccc1F
- IC50 [9]: 1600 nM
- IC50 [3]: 20 nM
- IC50 [4]: 35 nM
- IC50 [10]: > 100000 nM
- IC50 [6]: 92 nM

Compound: Cc1ccsc1C(=O)n1nc(Nc2ccc(S(N)(=O)=O)cc2)nc1N
- IC50 [12]: > 100000 nM
- IC50 [13]: 0.4 nM
- IC50 [14]: > 100000 nM
- IC50 [15]: 120 nM
- IC50 [9]: 310 nM
- IC50 [3]: 130 nM
- IC50 [4]: 91 nM
- IC50 [5]: 110 nM
- IC50 [10]: > 100000 nM
- IC50 [16]: 180 nM
- IC50 [17]: 26 nM
- IC50 [6]: 250 nM

Compound: Nc1nc(Nc2ccc(S(N)(=O)=O)cc2)n(C(=S)c2c(F)cccc2F)n1
- IC50 [3]: 910 nM
- IC50 [4]: 130 nM
- IC50 [6]: 970 nM

Compound: Nc1nc(Nc2ccc(S(N)(=O)=O)cc2)nn1C(=O)c1c(F)cccc1F [JNJ-7706621]
- bioavailability [18]: 2%
- IC50 [12]: > 100000 nM
- Cmax [19]: 210 nM
- AUC [31]: 2.45 µM·h
- IC50 [7]: 750 nM
- IC50 [14]: 30100 nM
- Cmax [32]: 2190 nM
- Cmax [33]: 23200 nM
- Cmax [34]: 2500 nM
- half-life [35]: 2.36 h
- AUC [36]: 9.5 µM·h
- AUC [37]: 11.4 µM·h
- AUC [21]: 3.2 µM·h
- T1/2 [22]: 0.64 h
- half-life [22]: 0.51 h
- Cmax [38]: 4580 nM
- IC50 [5]: 120 nM
- bioavailability [39]: 63.3%
- IC50 [8]: 590 nM
- IC50 [16]: 220 nM
- AUC [40]: 15.5 µM·h
- T1/2 [24]: 2.2 h and 1.7 h
- bioavailability [41]: 8%
- half-life [42]: 3.89 h
- Mean day survival [43]: 50.1 days
- Cmax [25]: 6400 nM
- Mean day survival [44]: 48.5 days
- IC50 [28]: > 100000 nM
- AUC [29]: 0.74 µM·h

More lines, main results first:

- IC50 [1]: > 100000 nM
Compound: Nc1nc(Nc2ccc(S(N)(=O)=O)cc2)nn1Cc1c(F)cccc1F

- IC50 [1]: 130 nM
- IC50 [4]: 140 nM
Compound: CN(C)CCNS(=O)(=O)c1ccc(Nc2nc(N)n(C(=O)c3c(F)cccc3F)n2)cc1

- IC50 [7]: 2100 nM
- IC50 [3]: 210 nM
- IC50 [4]: 260 nM
- IC50 [5]: 370 nM
- IC50 [11]: 940 nM
Compound: Nc1nc(Nc2ccc(S(N)(=O)=O)cc2)nn1C(=O)c1sccc1F

- bioavailability [18]: 20.6%
- IC50 [1]: 8 nM and 3 nM
- IC50 [12]: > 100000 nM
- Cmax [19]: 430 nM
- IC50 [13]: 0.3 nM
- IC50 [7]: 220 nM
- IC50 [14]: > 100000 nM
- IC50 [15]: 190 nM
- IC50 [3]: 880 nM
- IC50 [4]: 370 nM
- IC50 [20]: > 100000 nM
- AUC [21]: 0.27 µM·h
- half-life [22]: 1.94 h
- IC50 [5]: 160 nM
- IC50 [10]: > 100000 nM
- IC50 [23]: 510 nM
- IC50 [16]: 270 nM
- half-life [24]: 2.29 h
- IC50 [17]: 31 nM
- Cmax [25]: 330 nM
- IC50 [26]: 9500 nM
- IC50 [27]: > 100000 nM
- IC50 [28]: > 100000 nM
- AUC [29]: 0.55 µM·h
Compound: Cc1ccc(F)c(C(=O)n2nc(Nc3ccc(S(N)(=O)=O)cc3)nc2C)c1F
- IC50 [9]: 10700 nM

- IC50 [3]: 4700 nM
- IC50 [6]: 48300 nM
- IC50 [30]: 3730 nM
Compound: Nc1nc(Nc2ccc(S(N)(=O)=O)cc2)nn1C(=O)Nc1c(F)cccc1F

- IC50 [1]: 3.2 nM
- IC50 [7]: 1600 nM
- IC50 [4]: 220 nM
Compound: Cc1nc(Nc2ccc(S(N)(=O)=O)cc2)nn1C(=O)c1c(F)ccc(F)c1F
